Assay [1] concerns flank organs (hair growth) of male intact Golden Syrian hamsters. Briefly: Golden Syrian Hamster assay (flank organ hair mass). It counts as in vivo. To be noted: dose 0.3%, topical; for Hair Mass in mg (drug treated): vehicle of Example 2, thirteen applications; for Percent inhibition (hair mass): vehicle of Example 2, versus vehicle treated flank organ. An excerpt: Male intact Golden Syrian hamsters are considered acceptable models for human beard hair growth in that they display oval shaped flank organs, one on each side, each about 8 mm. in major diameter. These organs produce fine light colored hair typical of the animal pelage found on the body. In response to androgens the flank organs produce dark coarse hair similar to male human beard hair. To evaluate the effectiveness of a composition, the flank organs of each of a group of hamsters are depilated by applying a thioglycolate-based chemical depilatory (Surgex) and/or shaved. To one organ of each animal 10 μl of vehicle alone once a day is applied, while to the other organ of each animal an equal amount of vehicle containing substantially optically pure L-DFMO, substantially optically pure D-DFMO, racemic DFMO, or non-racemic DFMO including a preponderance of L-DFMO. After thirteen applications (one application per day for five days a week), the flank organs are shaved and the amount of recovered hair (hair mass) from each is weighed. For certain experiments, where indicated, the treatment period was for less than 13 applications. The reduced treatment period allowed for determination of onset in activity. Percent-reduction of hair growth is calculated by subtracting the hair mass (mg) value of the test compound treated side from the hair mass value of the vehicle treated side; the delta value obtained is then divided by the hair mass value of the vehicle treated side, and the resultant number is multiplied by 100. Visual evaluations comparing hair regrowth between the drug treated and the vehicle control site were made generally on day-8, day-15 and on day-19. These observations provide an identification of onset in activity (and thus efficacy). The above-described assay will be referred to herein as the “Golden Syrian Hamster” assay The efficacy of DFMO-containing compositions containing greater than 90% L-DFMO (“L-DFMO” for purposes of the below assays), racemic DFMO (“D,L-DFMO”), and greater than 90% D-DFMO (or “D-DFMO” for purposes of the below assays) was determined using the Golden Syrian Hamster assay. The L-DFMO produced a substantially greater hair mass reduction than the D-DFMO or D,L-DFMO (Table 1). The average inhibition at the 0.3% dose for the L-, D- and D,L-DFMO was 43±6%, 19±11% and 25±9%, respectively.

Assay [2] has as its system Hamster flank organ hair follicles. The assay is described as follows: Golden Syrian Hamster hair follicle density assay (image analysis). It counts as in vivo. As to conditions: 7 days, dose 0.5%, vehicle of Example 2. As for the experimental part: (§1) Hamster flank organs were treated topically with D,L-DFMO or L-DFMO with the contra-lateral side treated with the carrier vehicle without DFMO. Animals were sacrificed at the indicated time-point (4 days or 7 days) and back skins containing the flank organ were removed for analysis. Glycerin was applied to the underside of the dorsal skin of the hamster flank organ regions. Flank organ hair follicle mass and density were assessed, by imaging the region with a digital camera, and analysis of the images was performed with Ultimage/Pro (version 2.5) software by […]. This technique permitted the quantification of hair follicle mass based on particle area and number, and hair follicle density based on particle number.

Assay [3] relates to flank organ hair regrowth of Golden Syrian hamsters. Briefly: Golden Syrian Hamster visual efficacy assay. The class given is in vivo. As to conditions: dose 2%; for Number of animals demonstrating maximal efficacy (observation score of +3) after full three weeks of treatment / Percent of animals demonstrating maximal efficacy (observation score of +3) after full three weeks of treatment: vehicle of Example 2; for Number of animals demonstrating efficacy (score of +1 or greater) after two weeks of treatment / Percent of animals demonstrating efficacy (score of +1 or greater) after two weeks of treatment: vehicle of Example 2, blinded visual score. An excerpt: Male intact Golden Syrian hamsters are considered acceptable models for human beard hair growth in that they display oval shaped flank organs, one on each side, each about 8 mm. in major diameter. These organs produce fine light colored hair typical of the animal pelage found on the body. In response to androgens the flank organs produce dark coarse hair similar to male human beard hair. To evaluate the effectiveness of a composition, the flank organs of each of a group of hamsters are depilated by applying a thioglycolate-based chemical depilatory (Surgex) and/or shaved. To one organ of each animal 10 μl of vehicle alone once a day is applied, while to the other organ of each animal an equal amount of vehicle containing substantially optically pure L-DFMO, substantially optically pure D-DFMO, racemic DFMO, or non-racemic DFMO including a preponderance of L-DFMO. After thirteen applications (one application per day for five days a week), the flank organs are shaved and the amount of recovered hair (hair mass) from each is weighed. For certain experiments, where indicated, the treatment period was for less than 13 applications. The reduced treatment period allowed for determination of onset in activity. Percent-reduction of hair growth is calculated by subtracting the hair mass (mg) value of the test compound treated side from the hair mass value of the vehicle treated side; the delta value obtained is then divided by the hair mass value of the vehicle treated side, and the resultant number is multiplied by 100. Visual evaluations comparing hair regrowth between the drug treated and the vehicle control site were made generally on day-8, day-15 and on day-19. These observations provide an identification of onset in activity (and thus efficacy). The assay in a ‘blinded’ study included visual observations comparing the regrowth of hair on the DFMO treated flank organ with the vehicle treated flank organ during the course of treatment. Scores were assigned from 0 to +3. 0, no difference; +1, DFMO treated shorter than vehicle treated indicating efficacy; +2, DFMO treated much shorter than vehicle treated; +3, DFMO treated nearly bald indicating maximal efficacy. […] This assay will be referred to herein as the “Golden Syrian Hamster visual efficacy” assay.

Assay [4] deals with Human hair follicles in culture (facial skin). Briefly: Human Hair Follicle Growth assay. As to conditions: 0.5 mM, seven days in culture. It counts as cell-based. As for the experimental part:
Hair follicles were isolated from human facial (obtained from patients who underwent face lift surgery) skin samples using fine forceps under a dissecting microscope and grown in tissue culture Williams E medium—supplemented with insulin (10 μg/ml), glutamine (2 mM), hydrocortisone ([…]) and antibiotics/antimycotics (pen/strep). Hair lengths were determined on day 0, and day 7. Human hair follicles in culture were treated with 0.5 mM concentration of L-DFMO, D-DFMO, D,L-DFMO. Controls were cultured in Williams E tissue culture medium without DFMO. The increase in hair fiber length was determined over seven days. […] Only L-DFMO produced statistically significant reduction in hair growth (p=0.003) in this time period. […] The “P” values, as determined by paired test analysis, were 0.97, 0.78 and 0.003 for the D,L-DFMO, D-DFMO and L-DFMO, respectively.

Assay [5] concerns Hamster flank organ hair follicles. Briefly: Golden Syrian Hamster hair follicle spatial mass assay (image analysis). It counts as in vivo. As for the experimental part:
as §1

Assay [6] has as its system flank organs (hair growth) of Golden Syrian hamsters. The assay is described as follows: Twice a Week Golden Syrian Hamster assay. It counts as in vivo. To be noted: dose 1%, 2×/wk, vehicle of Example 2. An excerpt: Male intact Golden Syrian hamsters are considered acceptable models for human beard hair growth in that they display oval shaped flank organs, one on each side, each about 8 mm. in major diameter. These organs produce fine light colored hair typical of the animal pelage found on the body. In response to androgens the flank organs produce dark coarse hair similar to male human beard hair. To evaluate the effectiveness of a composition, the flank organs of each of a group of hamsters are depilated by applying a thioglycolate-based chemical depilatory (Surgex) and/or shaved. To one organ of each animal 10 μl of vehicle alone once a day is applied, while to the other organ of each animal an equal amount of vehicle containing substantially optically pure L-DFMO, substantially optically pure D-DFMO, racemic DFMO, or non-racemic DFMO including a preponderance of L-DFMO. After thirteen applications (one application per day for five days a week), the flank organs are shaved and the amount of recovered hair (hair mass) from each is weighed. For certain experiments, where indicated, the treatment period was for less than 13 applications. The reduced treatment period allowed for determination of onset in activity. Percent-reduction of hair growth is calculated by subtracting the hair mass (mg) value of the test compound treated side from the hair mass value of the vehicle treated side; the delta value obtained is then divided by the hair mass value of the vehicle treated side, and the resultant number is multiplied by 100. Visual evaluations comparing hair regrowth between the drug treated and the vehicle control site were made generally on day-8, day-15 and on day-19. These observations provide an identification of onset in activity (and thus efficacy). The Golden Syrian Hamster assay was modified so that the animals received a reduced treatment frequency with DFMO, namely twice per week instead of five times a week.

Where [7] appears, read: 4 Days, dose 1%, vehicle of Example 2.
[8] abbreviates: 7 Days, dose 0.5%, vehicle of Example 2 (Table 5).
Where [9] appears, read: 7 days, dose 0.5%, vehicle of Example 2.

Where “and” joins values, the source holds several entries; their conditions need not be identical. Identical values can stand only once. Entries after “also recorded” stand apart in the source; their conditions may differ.

A word on the inhibition: it is the change of the read-out against control, counted positive when it falls. Consider `NCCC[C@](N)(C(=O)O)C(F)F` (racemic) [D,L-DFMO, α-Difluoromethylornithine], for which, in assay [1], the “Hair Mass in mg (drug treated)” value is 1.53 ± 0.19 mg and the “Percent inhibition (hair mass)” value stood at 25±9%. Further, the “% Inhibition of Hair Follicle Density” value in assay [2] was “no effect; also recorded: No Inhibition”. For the same molecule, in assay [3], the “Number of animals demonstrating maximal efficacy (observation score of +3) after full three weeks of treatment” value (“Number … after full three weeks of treatment” below) is on record as 1 out of 8, the “Percent of animals demonstrating maximal efficacy (observation score of +3) after full three weeks of treatment” value was found to be 13%, the “Number of animals demonstrating efficacy (score of +1 or greater) after two weeks of treatment” value (“Number of animals demonstrating efficacy” below) was 3 out of 8 and the “Percent of animals demonstrating efficacy (score of +1 or greater) after two weeks of treatment” value (“Percent … after two weeks of treatment” below) was found to be 38%. Besides, in assay [3] (listed as D, L-DFMO), the “Percent … after two weeks of treatment” value stood at 38%. In addition, the “Percent of animals demonstrating maximal efficacy (observation score of +3) after full three weeks of treatment” value in assay [3] (listed as racemic DFMO) is reported as 13%. Also, the inhibition at 500 µM in assay [4] (Homo sapiens, 168 h, read-out: hair follicle growth inhibition (increase in hair fiber length, as compared to controls)) is 1 ± 12%. In assay [5] (setting [7]), the “Hair follicle mass as determined by image analysis: particle area (×10^6), Treated” value (“Hair follicle mass as determined” below) is on record as 4.89 ± 0.9 ×10^6; the “Inhibition % of hair follicle mass” value was 20% and 20 ± 9%. Further, the “Inhibition % of hair follicle mass” value in assay [5] (setting [8]) was 15% and 15 ± 13%. In addition, in assay [5] (setting [9]), the “Hair follicle mass as determined” value is 2.71 ± .71 ×10^6. The “Hair Mass in mg (drug treated)” value in assay [6] was determined as 1.74 ± 0.18 mg.

As to `NCCC[C@@](N)(C(=O)O)C(F)F` [D-DFMO], in assay [1], the “Hair Mass in mg (drug treated)” value is listed as 1.39 ± 0.12 mg and the “Percent inhibition (hair mass)” value is 19±11%. Further, in assay [3], the “Number … after full three weeks of treatment” value is reported as 0 out of 8, the “Number of animals demonstrating efficacy” value is listed as 2 out of 8 and the “Percent … after two weeks of treatment” value is listed as 25%. In addition, the “hair follicle growth inhibition (increase in hair fiber length, as compared to controls)” value in assay [4] was 4±13%. Moreover, the “Hair Mass in mg (drug treated)” value in assay [6] is given as 1.80 ± 0.18 mg.

Regarding `NCCC[C@](N)(C(=O)O)C(F)F` [L-DFMO, L-α-difluoromethylornithine], the “Hair Mass in mg (drug treated)” value in assay [1] stood at 1.06 ± 0.14 mg; in assay [6] it was 1.83 ± 0.38 mg. Also, the “Percent inhibition (hair mass)” value in assay [1] stood at 43±6%. Moreover, in assay [2], the “% Inhibition of Hair Follicle Density” value was 45% and 45 ± 5%. In addition, in assay [3], the “Number … after full three weeks of treatment” value is 5 out of 8. In addition, the “Number of animals demonstrating efficacy” value in assay [3] is 7 out of 8. In assay [4], the “hair follicle growth inhibition (increase in hair fiber length, as compared to controls)” value was determined as 36±12%. Moreover, the “hair follicle mass reduction, fold greater than by D,L-DFMO” value in assay [5] (0.5% dose, 7 days (Table 5)) is given as roughly 4 fold; in assay [5] (1% dose, 4 days), 2 fold. Besides, the “increase in efficacy (hair follicle spatial mass), fold versus D,L-DFMO” value in assay [5] (0.5% dose, 7 days, another assay (Table 6)) is listed as roughly 4 fold. For the same molecule, the “Hair follicle mass as determined” value in assay [5] (setting [7]) is 4.23 ± 1.1 ×10^6; in assay [5] (setting [9]), 2.22 ± .94 ×10^6. In addition, the “Inhibition % of hair follicle mass” value in assay [5] (setting [7]) was 43% and 43 ± 9%; in assay [5] (setting [8]) it was 58% and 58 ± 11%. Further, the “% Inhibition of Hair Follicle Mass” value in assay [5] (7 days, dose 0.5%, another assay (Table 6)) is 41% and 41 ± 15%.

The values above are taken from US6743822B2, “Reduction of hair growth” (The Gillette Company, priority 2001, dated 2004).
